Experimental data taken from US11253540B2, “Composition including glycosaminoglycan derivative and chemokine receptor activity regulator” (Seikagaku Corporation, priority 2015, dated 2022).

Tests used:
[1] = system: laser-induced CNV; experiment: Laser-induced CNV models of rat: CNV area, flat mounts prepared 4 days after preparation of models; type: in vivo; parameters: key to Test results, CNV area vs. CS, t-test: N.S.: Not Significant (vs. CS), t-test; conditions: Test Example 19; for CNV area, mean: 5 μL/eye intravitreal once, flat mounts after 4 days, Compound 3 10 mg/ml in PBS, CS (about 40,000) 10 mg/mL in PBS
Description: BN/CrlCrlj rats (male, CHARLES RIVER LABORATORIES JAPAN, INC.) were used for the preparation of animal models. Under general anesthesia by intraperitoneal administration of an anesthetic mixture (saline:Somnopentyl=9:1) (about 2 mL/body), Mydrin-P ophthalmic solution was topically instilled to cause mydriasis in both eyes. The retina around the optic disk was irradiated with a laser beam to induce CNV. Used for the laser beam irradiation were SCOPISOL solution for eye, Fundus 5.4 mm Laser Lens, a laser photocoagulation device and a slit lamp illumination system. Immediately after the laser beam irradiation, 5 μL/eye of the test substance was administered once into the vitreous bodies of both eyes. Immediately after the administration, one drop of an antimicrobial drug (VEGAMOX Ophthalmic Solution 0.5%) was instilled.
After 10 days from the preparation, the models were euthanized with CO2. The eyeballs were extracted and immersed in 10% neutral buffered solution of formalin (room temperature, about 60 minutes). Eye cups were prepared, washed with PBS, dehydrated with methanol and immersed in PBS containing 1% bovine serum albumin and 0.5% Triton X-100 (room temperature, about 60 minutes). The retina was removed, and 60 μL of 0.5% fluorescein Griffonia simplicifolia lectin I, FITC-conjugate was added to the eye cups, and the eye cups were allowed to stand (under refrigeration, overnight). By this treatment, vascular endothelial cells of CNV were fluorescently stained with FITC-lectin. Eight slits were made radially in each of the eye cups to thereby obtain flat mounts. These flat mounts were washed twice with PBS containing 0.1% Triton X-100 and embedded on a glass slide with about 120 μL of Prolong Gold Antifade Reagent.
A fluorescence image of CNV in the flat mount embedded on a glass slide was taken with a fluorescent microscope. The area of CNV was measured using an image processing software (Image pro exp).
Laser-induced CNV models of rat were prepared, and neovascularization inhibitory effect was examined with respect to intravitreal administration of Compound 3.
Substantially the same procedure as in ? Method ? for Test Example 1 was repeated, except that flat mounts were prepared 4 days after the preparation of models, instead of 10 days after the preparation of models in Test Example 1.
The areas of CNV in each group were analyzed by a test (t-test) for unpaired two groups. The significance level was 5% on both sides.

[2] = system: laser-induced CNV; experiment: Laser-induced CNV models of rat: CNV area in flat mounts 10 days after intravitreal administration; type: in vivo; parameters: key to Test results, CNV area vs. DMSO, t-test: **: P < 0.01 (vs. DMSO), t-test; #: P < 0.05 (vs. Ki19003), t-test; N.S.: Not Significant (vs. DMSO), t-test; key to Test results, CNV area vs. DMSO, Dunnett's test: *: P < 0.05 (vs. DMSO), Dunnett's test; N.S.: Not Significant (vs. DMSO), Dunnett's test; #: P < 0.05; ##: P < 0.01 (vs. GW766994), Dunnett's test; key to Test results, CNV area vs. PBS, t-test: *: P < 0.05 (vs. PBS), t-test; N.S.: Not Significant (vs. PBS), t-test; CNV area, mean: unit not given here; conditions: for CNV area, mean: 5 μL/eye intravitreal once, 10 days
Description: Laser-induced CNV models of rat were prepared, and neovascularization inhibitory effect was examined with respect to intravitreal administration of Composition 10 or Ki19003. BN/CrlCrlj rats (male, CHARLES RIVER LABORATORIES JAPAN, INC.) were used for the preparation of animal models. […] The retina around the optic disk was irradiated with a laser beam to induce CNV. Used for the laser beam irradiation were SCOPISOL solution for eye, Fundus 5.4 mm Laser Lens, a laser photocoagulation device and a slit lamp illumination system. Immediately after the laser beam irradiation, 5 μL/eye of the test substance was administered once into the vitreous bodies of both eyes. Immediately after the administration, one drop of an antimicrobial drug ([…] Ophthalmic Solution 0.5%) was instilled. After 10 days from the preparation, the models were euthanized with CO2. The eyeballs were extracted and immersed in 10% neutral buffered solution of formalin (room temperature, about 60 minutes). Eye cups were prepared, washed with PBS, dehydrated with methanol and immersed in PBS containing 1% bovine serum albumin and 0.5% Triton X-100 (room temperature, about 60 minutes). The retina was removed, and 60 μL of 0.5% fluorescein Griffonia simplicifolia lectin I, FITC-conjugate was added to the eye cups, and the eye cups were allowed to stand (under refrigeration, overnight). By this treatment, vascular endothelial cells of CNV were fluorescently stained with FITC-lectin. Eight slits were made radially in each of the eye cups to thereby obtain flat mounts. These flat mounts were washed twice with PBS containing 0.1% Triton X-100 and embedded on a glass slide with about 120 μL of Prolong Gold Antifade Reagent. A fluorescence image of CNV in the flat mount embedded on a glass slide was taken with a fluorescent microscope. The area of CNV was measured using an image processing software (Image pro exp). The areas of CNV in each group were analyzed by a test (t-test) for unpaired two groups. The significance level was 5% on both sides.

[3] = system: laser-induced CNV; conditions: intravitreal administration, laser-induced CNV model of mouse; cited from earlier work

**Q.** Which “Test results, CNV area vs. CS, t-test” value [1] does the source give for “5β-Cholanic Acid-Introduced CS [Compound 3]” here?
**A.** The value was “N.S”.

**Q.** What about the “inhibitory effects of CNV, as compared to CS” value [1] of the same molecule?
**A.** The value was “did not show significant inhibitory effects of CNV”.

**Q.** What about the “CNV area, mean” value [1] of the same molecule?
**A.** The value was 51925.

**Q.** Which results are given for `Cc1ccc(S(=O)(=O)NC(=O)N2CCC(N3CCC(Oc4ccc(Cl)c(Cl)c4)CC3)CC2)cc1` [AZD3778]?
**A.** Test results, CNV area vs. DMSO, t-test ([2]; Test Example 8): N.S.; CNV area, mean ([2]; Test Example 8, Composition 35 containing 0.1 mg/mL of AZD3778, AZD3778 0.1 mg/mL in DMSO): 43935

**Q.** With `NC(=O)c1ccc(CNC(=O)NC[C@H]2CN(Cc3ccc(Cl)c(Cl)c3)CCO2)cc1` [GW766994] as the molecule, how does the “inhibitory effects of CNV, as compared to DMSO” value ([2]; GW766994 dissolved in DMSO, 2 mg/mL and 1.5 mg/mL (Test Examples 6 and 10), both concentrations) read?
**A.** The value was “did not have inhibitory effects of CNV”.

**Q.** What about the “Test results, CNV area vs. DMSO, t-test” value ([2]; Test Example 6) of the same molecule?
**A.** Its value is “N.S”.

**Q.** What about the “CNV area, mean” value ([2]; Test Example 6, Composition 33 containing 2 mg/mL of GW766994, GW766994 2 mg/mL in DMSO) of the same molecule?
**A.** The value was 41548.

**Q.** What about the “Test results, CNV area vs. DMSO, Dunnett's test” value ([2]; Test Example 10) of the same molecule?
**A.** Its value is “N.S”.

**Q.** What about the “CNV area, mean” value ([2]; Test Example 10, Composition 6 containing 0.71, Composition 7 0.83 mg/mL of GW766994, GW766994 1.5 mg/mL in DMSO) of the same molecule?
**A.** Its value is 30795.

**Q.** With `NC(N)=NCCC[C@H](NC(=O)[C@@H]1Cc2ccccc2CN1C(=O)CCC(=O)c1ccccc1)C(=O)NCC1CCCCC1` [PS372424] as the molecule, how does the “CNV area, mean” value ([2]; Test Example 15, Composition 38 containing 0.091 mg/mL of PS372424, PS372424 0.1 mg/mL in DMSO) read?
**A.** The value was 36842.

**Q.** Which “Test results, CNV area vs. DMSO, t-test” value ([2]; Test Example 14) does the source give for `Cc1ccc2c(c1)C1(CCN(CCc3nc(-c4ccccc4)oc3C)CC1)OC(=O)N2` [RS504393] here?
**A.** Its value is “N.S”.

**Q.** And the “CNV area, mean” value ([2]; Test Example 14, Composition 37 containing 0.01 mg/mL of RS504393, RS504393 0.01 mg/mL in DMSO)?
**A.** The value was 44137.

**Q.** With `O=C(Nc1ccc([N+](=O)[O-])cc1O)Nc1ccccc1Br` [SB225002] as the molecule, how does the “Test results, CNV area vs. DMSO, t-test” value ([2]; Test Example 5) read?
**A.** Its value is “N.S”.

**Q.** What about the “CNV area, mean” value ([2]; Test Example 5, Composition 31 containing 0.018, Composition 32 0.02 mg/mL of SB225002, SB225002 0.02 mg/mL in DMSO) of the same molecule?
**A.** Its value is 43121.

**Q.** What does the source list for `COC(=O)[C@H](Cc1ccc([N+](=O)[O-])cc1)NC(=O)c1cccc2ccccc12` [SB328437]?
**A.** CNV area, mean ([2]; Test Example 4, Compositions 14, 15, 16 containing 1.33, 1.67, 3.33 mg/mL of SB328437, SB328437 2 mg/mL in DMSO): 26040; Test results, CNV area vs. DMSO, t-test ([2]; Test Example 9): * (P < 0.05); CNV area, mean ([2]; Test Example 9, Composition 36 containing 1 mg/mL of SB328437, SB328437 1 mg/mL in DMSO): 38911

**Q.** What does the source list for chondroitin sulfate [CS]?
**A.** Test results, CNV area vs. PBS, t-test ([2]; Test Example 18): N.S.; CNV area, mean ([2]; Test Example 18, CS (average molecular weight about 140,000) 20 mg/mL in PBS): 30462; inhibitory effects of CNV, as compared to PBS ([2]; Test Example 18, CS 20 mg/mL): did not show significant inhibitory effects of CNV; CNV area, mean [1]: 50236

**Q.** With heparan sulfate as the molecule, how does the “suppression of CNV” value [3] read?
**A.** The value was “suppressed CNV”.

**Q.** For heparin, which “suppression of CNV” value [3] is on record?
**A.** The value was “suppressed CNV”.
